TGI and GI50 data for eleven compounds are collected here from PubChem BioAssay (NCI).

Among the test systems are 786-0 renal; HCT-15 colon; HL-60(TB) leukemia; HOP-92 NSCLC; IGROV1 ovarian; OVCAR-4 ovarian; SF-539 CNS; TK-10 renal; U251 CNS; EKVX NSCLC.
Holding throughout (assay): NCI anticancer screen, dose series, 48 h

Where “and” joins values, the source holds several entries; their conditions need not be identical. Equal entries are not always repeated.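 Protocol summary: plate cells (96-well), add compound at 5 concentrations, incubate 48 h, interpolate endpoints linearly. GI50 = concentration required for 50% inhibition of growth. TGI: total growth inhibition.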 Where only a bound is given, the exact number is not on record here.

Consider `CCCNc1ncnc2c1cnn2C`, for which the TGI in the experiment on 786-0 renal, in the experiment on HCT-15 colon, with HL-60(TB) leukemia, in the experiment with HOP-92 NSCLC, in the experiment with IGROV1 ovarian and with OVCAR-4 ovarian was above 100 µM in each case. Also, the TGI in the experiment on SF-539 CNS, with TK-10 renal and with U251 CNS was above 100 µM each time.
As to `Brc1ccc2c(c1)-c1ccccc1C1=NCCN12`, the GI50 in the experiment with 786-0 renal was 1.61 µM; in the experiment on HCT-15 colon, 0.68 µM; in the experiment with HL-60(TB) leukemia it was 2.45 µM; in the experiment on HOP-92 NSCLC it was 1.33 µM; with IGROV1 ovarian it was 1.61 µM; in the experiment with OVCAR-4 ovarian it was 1.43 µM. In addition, the GI50 in the experiment on SF-539 CNS was 1.63 µM; in the experiment on TK-10 renal, 1.5 µM; in the experiment on U251 CNS, 1.24 µM. For the same compound, the TGI in the experiment with 786-0 renal was determined as 11.7 µM; with HCT-15 colon it was 10.8 µM; in the experiment on HL-60(TB) leukemia it was 5.65 µM; in the experiment with HOP-92 NSCLC it was 5.74 µM; in the experiment on IGROV1 ovarian, 11.2 µM; in the experiment on OVCAR-4 ovarian it was 8.53 µM. Also, the TGI was found to be 4.38 µM with SF-539 CNS, 7.18 µM in the experiment with TK-10 renal and 11.1 µM in the experiment on U251 CNS.
`CC1=CC(=O)N2[C@H](OC[C@@H]2C(C)C)O1`: the TGI with 786-0 renal, in the experiment with HCT-15 colon, in the experiment on HL-60(TB) leukemia, in the experiment on HOP-92 NSCLC, in the experiment on IGROV1 ovarian and with OVCAR-4 ovarian was above 100 µM in each case. The TGI with SF-539 CNS, in the experiment with TK-10 renal and in the experiment on U251 CNS was above 100 µM each time.
With `O=C(/C=C/N1CCN(c2cccc(Cl)c2)CC1)c1ccc(Cl)cc1`, the GI50 in the experiment with 786-0 renal is 33.9 µM; with EKVX NSCLC, 25.9 µM; with HCT-15 colon, 31 µM; in the experiment with HOP-92 NSCLC, 15.1 µM; with OVCAR-4 ovarian, above 100 µM; with SF-539 CNS, 22.8 µM. The GI50 was 30.8 µM in the experiment on TK-10 renal and 42.1 µM in the experiment with U251 CNS. Also, the TGI was above 100 µM in the experiment on 786-0 renal; 85.3 µM with EKVX NSCLC; above 100 µM in the experiment with HCT-15 colon; 57.7 µM with HOP-92 NSCLC; above 100 µM with OVCAR-4 ovarian; 47.7 µM in the experiment with SF-539 CNS. The TGI with TK-10 renal and in the experiment with U251 CNS was above 100 µM in each case.
For `COc1ccc(S(=O)(=O)NCCCNc2nccc(-c3c(-c4ccc(F)cc4)nc4sccn34)n2)cc1`, the GI50 was 5.83 µM in the experiment on 786-0 renal; 3.6 µM in the experiment with HCT-15 colon; 7.51 µM in the experiment with HL-60(TB) leukemia; 5.59 µM in the experiment with IGROV1 ovarian; 3.07 µM in the experiment with OVCAR-4 ovarian; 17.1 µM with SF-539 CNS. The GI50 with TK-10 renal was 11.8 µM; in the experiment with U251 CNS, 7.26 µM. For the same compound, the TGI is above 100 µM in the experiment on 786-0 renal; above 100 µM in the experiment on HCT-15 colon; above 100 µM in the experiment on HL-60(TB) leukemia; above 100 µM with IGROV1 ovarian; 27.2 µM in the experiment on OVCAR-4 ovarian; above 100 µM in the experiment with SF-539 CNS. Further, the TGI in the experiment with TK-10 renal and in the experiment with U251 CNS was above 100 µM throughout.
On to `CC(=O)OCC1OC(OC(C)=O)C(NC#N)C(OC(C)=O)C1OC(C)=O` (configuration not stated), for which the TGI in the experiment on 786-0 renal, with HCT-15 colon, in the experiment with HL-60(TB) leukemia, in the experiment on HOP-92 NSCLC, in the experiment with IGROV1 ovarian and with OVCAR-4 ovarian was above 100 µM throughout. The TGI with SF-539 CNS, with TK-10 renal and with U251 CNS was above 100 µM throughout.
For the compound `OCCn1c(-c2ccncc2)c(-c2ccc(F)cc2)c2ncccc21`, the GI50 with 786-0 renal was above 25 µM; in the experiment with HCT-15 colon it was above 25 µM; in the experiment with HL-60(TB) leukemia it was above 25 µM; in the experiment with HOP-92 NSCLC it was 9.5 µM; with IGROV1 ovarian, above 25 µM; in the experiment on OVCAR-4 ovarian it was above 25 µM. Also, the GI50 with SF-539 CNS, with TK-10 renal and in the experiment on U251 CNS was above 25 µM in each case. Besides, the TGI in the experiment on 786-0 renal, in the experiment on HCT-15 colon, with HL-60(TB) leukemia, in the experiment on HOP-92 NSCLC, in the experiment on IGROV1 ovarian and in the experiment with OVCAR-4 ovarian was above 25 µM each time. The TGI in the experiment on SF-539 CNS, in the experiment on TK-10 renal and with U251 CNS was above 25 µM throughout.
As to `O=C(Nc1cccc(C(F)(F)F)c1)Nc1ccc(OCc2nnc(-c3ccccc3)o2)c(F)c1`, the GI50 is 6.18 µM with 786-0 renal; 2.92 µM in the experiment on HCT-15 colon; 2.58 µM with HL-60(TB) leukemia; 1.77 µM in the experiment on HOP-92 NSCLC; 5.5 µM in the experiment with IGROV1 ovarian; 4 µM with OVCAR-4 ovarian. Besides, the figures for the GI50 in the experiment on SF-539 CNS, in the experiment with TK-10 renal and in the experiment with U251 CNS were 5.1 µM, 20.5 µM and 3.73 µM, respectively. Moreover, the TGI came out at 22.4 µM in the experiment with 786-0 renal; 54.3 µM in the experiment on HCT-15 colon; 6.4 µM in the experiment on HL-60(TB) leukemia; 5.81 µM in the experiment on HOP-92 NSCLC; 26.6 µM in the experiment with IGROV1 ovarian; 30.1 µM in the experiment with OVCAR-4 ovarian. In addition, the TGI with SF-539 CNS amounted to 23.2 µM; with TK-10 renal it was 68.9 µM; with U251 CNS it was 19.6 µM.
Consider `Cc1cc(C2(c3cc(C)c(O)c4ncccc34)OC(=O)c3ccccc32)c2cccnc2c1O`, for which the GI50 in the experiment on 786-0 renal is 0.114 µM; in the experiment with EKVX NSCLC, 0.0124 µM; in the experiment on SF-539 CNS, 0.02 µM. In addition, the TGI is above 100 µM in the experiment on 786-0 renal; 7.94 µM and 21.9 µM with IGROV1 ovarian; above 100 µM with OVCAR-4 ovarian; 4.69 µM and 11.7 µM in the experiment with SF-539 CNS; above 100 µM in the experiment on U251 CNS.
Turning to `COC(=O)C1=C(C)N(NC(=O)Nc2ccccc2)C2(N)N(NC(=O)Nc3ccccc3)C(C)=C(C(=O)OC)C12C(=O)OC` (configuration not stated), the TGI is above 100 µM in the experiment with 786-0 renal; above 100 µM with HCT-15 colon; above 100 µM in the experiment with HOP-92 NSCLC; 55.5 µM in the experiment with IGROV1 ovarian; above 100 µM with OVCAR-4 ovarian; above 100 µM with TK-10 renal. In addition, the TGI with U251 CNS is above 100 µM.
In the case of `CN1OC(CO)CC12C1CC3CC(C1)CC2C3` (configuration not stated), the TGI in the experiment on 786-0 renal, in the experiment with HCT-15 colon, with HL-60(TB) leukemia, in the experiment with HOP-92 NSCLC, in the experiment with IGROV1 ovarian and in the experiment on OVCAR-4 ovarian was above 100 µM each time. Besides, the TGI in the experiment with SF-539 CNS, in the experiment with TK-10 renal and with U251 CNS was above 100 µM throughout.
